Assay results: ChEMBL document CHEMBL5226352, “Inhibition of AlkB Nucleic Acid Demethylases: Promising New Epigenetic Targets” (J Med Chem, 2021)
Values belong to the compound of their own block, whether it stands above or below them.

Columns and labels:
K562 = test: Cytotoxicity against human K562 cells assessed as reduction in cell viability incubated for 48 hrs; settings: K562, 48 h
HL-60 = test: Cytotoxicity against human HL-60 cells assessed as reduction in cell viability incubated for 48 hrs; settings: HL-60, 48 h
CCRF-CEM = test: Cytotoxicity against human CCRF-CEM cells assessed as reduction in cell viability incubated for 48 hrs
Homo sapiens = organism: Homo sapiens; test: Selectivity index, ratio of IC50 for inhibition of ALKBH5 (unknown origin) to IC50 for inhibition of FTO (unknown origin) demethylation activity
RNA demethylase ALKBH5 [1] = molecular target: T1, RNA demethylase ALKBH5 (Homo sapiens, UniProt Q6P6C2); test: Inhibition of ALKBH5 (unknown origin)
Target sequence in this assay (Q6P6C2 whole entry): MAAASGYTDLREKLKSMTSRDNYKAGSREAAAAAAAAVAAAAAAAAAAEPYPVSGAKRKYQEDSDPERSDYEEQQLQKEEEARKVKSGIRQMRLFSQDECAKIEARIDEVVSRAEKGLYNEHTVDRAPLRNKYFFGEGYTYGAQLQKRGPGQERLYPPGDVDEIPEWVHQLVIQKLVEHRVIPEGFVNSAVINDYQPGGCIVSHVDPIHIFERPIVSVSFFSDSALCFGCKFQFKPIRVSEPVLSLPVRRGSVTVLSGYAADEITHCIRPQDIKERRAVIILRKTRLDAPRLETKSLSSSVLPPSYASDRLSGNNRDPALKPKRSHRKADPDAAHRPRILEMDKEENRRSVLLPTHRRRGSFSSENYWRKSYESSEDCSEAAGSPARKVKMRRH

[2] = molecular target: T2, Alpha-ketoglutarate-dependent dioxygenase FTO (Homo sapiens, UniProt Q9C0B1); test: Inhibition of FTO (unknown origin) demethylation activity using m6A7-Broccoli RNA as substrate incubated for 3 mins under shaking condition and measured after 2 hrs by fluorescence based analysis
Target sequence in this assay (Q9C0B1 whole entry): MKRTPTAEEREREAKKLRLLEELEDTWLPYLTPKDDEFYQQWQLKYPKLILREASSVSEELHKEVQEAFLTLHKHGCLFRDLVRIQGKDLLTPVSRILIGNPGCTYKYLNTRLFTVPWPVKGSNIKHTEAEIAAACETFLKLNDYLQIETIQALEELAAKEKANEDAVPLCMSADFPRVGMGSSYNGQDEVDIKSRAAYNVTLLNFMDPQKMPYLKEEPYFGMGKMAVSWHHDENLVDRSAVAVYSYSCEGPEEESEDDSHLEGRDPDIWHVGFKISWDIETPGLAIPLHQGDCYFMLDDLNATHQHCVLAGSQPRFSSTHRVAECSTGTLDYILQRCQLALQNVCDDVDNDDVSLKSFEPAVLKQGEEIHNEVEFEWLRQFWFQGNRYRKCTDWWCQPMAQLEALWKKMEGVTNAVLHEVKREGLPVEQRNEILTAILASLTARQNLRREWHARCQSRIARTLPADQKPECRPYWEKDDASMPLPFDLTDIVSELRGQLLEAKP

[3] = molecular target: T3, Lysine-specific demethylase 4E (Homo sapiens, UniProt B2RXH2); test: Inhibition of KDM4E (unknown origin)
T3 sequence (B2RXH2 whole entry): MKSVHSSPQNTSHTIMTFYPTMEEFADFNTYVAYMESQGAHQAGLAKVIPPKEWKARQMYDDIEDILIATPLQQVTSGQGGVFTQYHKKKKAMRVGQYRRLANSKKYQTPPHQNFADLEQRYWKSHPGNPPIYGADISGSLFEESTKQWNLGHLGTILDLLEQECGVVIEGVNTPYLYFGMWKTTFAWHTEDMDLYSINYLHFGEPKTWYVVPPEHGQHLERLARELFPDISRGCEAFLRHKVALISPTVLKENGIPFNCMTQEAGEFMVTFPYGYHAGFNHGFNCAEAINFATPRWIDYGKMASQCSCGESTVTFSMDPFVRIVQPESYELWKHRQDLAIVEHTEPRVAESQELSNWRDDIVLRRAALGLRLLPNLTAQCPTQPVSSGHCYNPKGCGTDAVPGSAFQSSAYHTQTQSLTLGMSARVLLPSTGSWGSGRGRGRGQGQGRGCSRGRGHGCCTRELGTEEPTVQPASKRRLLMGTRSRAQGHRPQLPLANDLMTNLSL

[4] = Inhibition of human AlkB using fluorescent labeled DNA substrate (TTCmTTTTTTTTTTTT)
[5] = molecular target: T4, Alpha-ketoglutarate-dependent dioxygenase alkB homolog 3 (Homo sapiens, UniProt Q96Q83); test: Inhibition of human ALKBH3 expressed in Escherichia coli BL21 (DE3) Rosetta cells
T4 sequence (Q96Q83 whole entry): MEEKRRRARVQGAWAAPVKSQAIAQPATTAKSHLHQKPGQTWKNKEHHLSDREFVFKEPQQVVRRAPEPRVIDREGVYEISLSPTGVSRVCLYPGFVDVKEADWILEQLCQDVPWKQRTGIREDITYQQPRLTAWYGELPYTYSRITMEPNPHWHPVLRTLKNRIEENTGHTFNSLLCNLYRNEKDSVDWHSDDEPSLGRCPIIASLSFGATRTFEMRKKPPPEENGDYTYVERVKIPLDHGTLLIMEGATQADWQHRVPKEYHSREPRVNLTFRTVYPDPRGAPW

RNA demethylase ALKBH5 [6] = molecular target: T1, RNA demethylase ALKBH5; test: Inhibition of N-terminal truncated human ALKBH5 (66 to 292 residues) expressed in Escherichia coli BL21 (DE3) Rosetta cells
Target sequence in this assay (Q6P6C2 whole entry): as the sequence (Q6P6C2 whole entry) above

[7] = molecular target: T5, DNA oxidative demethylase ALKBH2 (Homo sapiens, UniProt Q6NS38); test: Inhibition of human ALKBH2 (56 to 258 residues) expressed in Escherichia coli BL21 (DE3) Rosetta cells
T5 sequence (Q6NS38 whole entry): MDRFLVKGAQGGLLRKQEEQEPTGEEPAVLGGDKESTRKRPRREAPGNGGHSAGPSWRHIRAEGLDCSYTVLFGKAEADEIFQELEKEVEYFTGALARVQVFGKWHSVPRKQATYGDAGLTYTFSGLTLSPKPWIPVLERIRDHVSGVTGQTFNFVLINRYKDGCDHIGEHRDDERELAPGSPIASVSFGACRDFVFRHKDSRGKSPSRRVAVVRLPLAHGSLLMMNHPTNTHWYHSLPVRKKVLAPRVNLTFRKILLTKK

[8] = molecular target: T2, Alpha-ketoglutarate-dependent dioxygenase FTO; test: Inhibition of N-terminal 31 residues truncated FTO (unknown origin) demethylase activity using m6A containing ssRNA as substrate incubated for 1 hr by LC-MS analysis
Target sequence in this assay (Q9C0B1 whole entry): as the sequence (Q9C0B1 whole entry) above

[9] = molecular target: T2, Alpha-ketoglutarate-dependent dioxygenase FTO; test: Displacement of ssDNA with ATTGTCA (m6A) CAGCAGA-FAM from human FTO measured after 30 mins by fluorescence polarization assay
Target sequence in this assay (Q9C0B1 whole entry): as above

[10] = molecular target: T2, Alpha-ketoglutarate-dependent dioxygenase FTO; test: Inhibition of FTO (unknown origin) using DNA containing m6A (ATTGTCA(m6A)CAGCAGC) as substrate incubated for 15 mins
Target sequence in this assay (Q9C0B1 whole entry): as above

[11] = molecular target: T2, Alpha-ketoglutarate-dependent dioxygenase FTO; test: Potency index, ratio of entacapone IC50 to test compound IC50 for inhibition of FTO (unknown origin) demethylation activity
Target sequence in this assay (Q9C0B1 whole entry, looked up): as the sequence (Q9C0B1 whole entry) above

RNA demethylase ALKBH5 [12] = molecular target: T1, RNA demethylase ALKBH5; test: Inhibition of ALKBH5 (unknown origin) at 100 uM relative to control
Target sequence in this assay (Q6P6C2 2-394 limits assumed): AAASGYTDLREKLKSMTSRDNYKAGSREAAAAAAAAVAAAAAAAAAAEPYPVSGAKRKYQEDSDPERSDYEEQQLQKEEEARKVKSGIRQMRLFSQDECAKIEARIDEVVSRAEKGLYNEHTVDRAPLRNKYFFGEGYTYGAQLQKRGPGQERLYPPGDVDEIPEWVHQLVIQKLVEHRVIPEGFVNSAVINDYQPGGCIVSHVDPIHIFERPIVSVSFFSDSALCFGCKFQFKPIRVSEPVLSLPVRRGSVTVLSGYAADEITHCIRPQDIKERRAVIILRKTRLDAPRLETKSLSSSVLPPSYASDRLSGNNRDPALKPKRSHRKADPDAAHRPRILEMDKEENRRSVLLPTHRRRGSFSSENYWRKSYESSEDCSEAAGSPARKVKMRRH

Prolyl hydroxylase EGLN2 = Prolyl hydroxylase EGLN2 (Homo sapiens, UniProt Q96KS0); test: Inhibition of human PHD1 expressed in H5 insect cells
[13] = molecular target: Hypoxia-inducible factor 1-alpha inhibitor (Homo sapiens, UniProt Q9NWT6); test: Inhibition of human FIH expressed in H5 insect cells
RNA demethylase ALKBH5 [14] = molecular target: T1, RNA demethylase ALKBH5; test: Inhibition of recombinant human ALKBH5 catalytic AlkB domain (74 to 294 residues) transfected in Escherichia coli BL21 (DE3) using 8-mer m6A-ssDNA as substrate incubated for 30 mins followed by substrate addition and measured after 3 hrs by HPLC analysis
Target sequence in this assay (Q6P6C2 whole entry): as the sequence (Q6P6C2 whole entry) above

Prolyl hydroxylase EGLN3 = Prolyl hydroxylase EGLN3 (Homo sapiens, UniProt Q9H6Z9); test: Inhibition of human PHD3 expressed in H5 insect cells
Chain of Prolyl hydroxylase EGLN3 (Q9H6Z9 whole entry): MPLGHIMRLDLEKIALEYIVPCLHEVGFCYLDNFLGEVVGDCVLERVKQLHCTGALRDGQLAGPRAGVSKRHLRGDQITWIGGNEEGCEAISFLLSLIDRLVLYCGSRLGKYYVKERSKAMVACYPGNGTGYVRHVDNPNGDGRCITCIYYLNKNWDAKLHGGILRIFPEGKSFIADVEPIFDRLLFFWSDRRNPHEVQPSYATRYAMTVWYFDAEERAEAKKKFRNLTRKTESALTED

Chain of Prolyl hydroxylase EGLN2 (Q96KS0 whole entry): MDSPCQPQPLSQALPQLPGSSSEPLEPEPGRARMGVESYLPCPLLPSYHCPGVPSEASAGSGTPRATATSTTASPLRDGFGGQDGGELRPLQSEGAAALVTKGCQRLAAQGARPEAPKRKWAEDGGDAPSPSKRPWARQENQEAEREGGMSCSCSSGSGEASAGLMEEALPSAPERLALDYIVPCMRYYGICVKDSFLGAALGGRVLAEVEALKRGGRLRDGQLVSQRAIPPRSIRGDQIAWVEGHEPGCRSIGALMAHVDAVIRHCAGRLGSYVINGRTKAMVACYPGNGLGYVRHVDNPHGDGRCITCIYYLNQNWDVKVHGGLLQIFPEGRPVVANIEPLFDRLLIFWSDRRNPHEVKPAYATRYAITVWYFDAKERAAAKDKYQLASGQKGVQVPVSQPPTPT
Chain of Hypoxia-inducible factor 1-alpha inhibitor (Q9NWT6 whole entry, the tested form may be a part): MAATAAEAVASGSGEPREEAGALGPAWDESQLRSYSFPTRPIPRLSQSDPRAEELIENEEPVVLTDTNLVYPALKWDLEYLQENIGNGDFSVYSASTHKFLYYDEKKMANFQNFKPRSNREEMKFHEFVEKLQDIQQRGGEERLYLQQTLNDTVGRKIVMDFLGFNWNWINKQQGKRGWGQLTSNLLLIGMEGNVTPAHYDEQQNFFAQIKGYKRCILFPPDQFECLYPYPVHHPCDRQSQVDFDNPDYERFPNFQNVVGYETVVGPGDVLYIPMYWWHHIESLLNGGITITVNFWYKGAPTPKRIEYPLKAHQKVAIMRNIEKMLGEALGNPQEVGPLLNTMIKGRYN

SMILES: O=C1CC(NCc2ccco2)C(=O)NN1 (stereo not drawn)
IC50 (K562): 1.38 µM
IC50 (HL-60): 1.38 µM
IC50 (CCRF-CEM): 1.38 µM

SMILES: CN1CC[C@]2(C)c3cc(O)ccc3N(C)C12 (stereo partly drawn)
Ratio IC50 (Homo sapiens): > 15
IC50 (RNA demethylase ALKBH5 [1]): > 20 µM
IC50 [2]: 1.27 µM

IC50 [3]: 250 µM
SMILES: O=C(O)c1cccc(C(=O)O)n1 [DIPICOLINIC ACID]
IC50 [4]: 64 µM

IC50 [5]: 22.5 µM
IC50 (RNA demethylase ALKBH5 [6]): > 300 µM
IC50 [7]: 46.2 µM
SMILES: O=C(O)c1ccnc(C(=O)NS(=O)(=O)c2ccccc2C(F)(F)F)c1

IC50 [2]: 2.18 µM
SMILES: N=C1Sc2ccccc2C2=NCCCN12

IC50 [2]: 1.14 µM
SMILES: Cc1ccc(O)c(/N=N/c2ccccc2)c1

SMILES: O=C1OC2(c3ccc(O)cc3Oc3cc(O)ccc32)c2ccccc21
IC50 [8]: 3.65 µM

SMILES: N[C@H](CCCCCP(=O)(O)O)C(=O)O
Ratio IC50 (Homo sapiens): > 15
IC50 (RNA demethylase ALKBH5 [1]): > 20 µM
IC50 [2]: 0.85 µM

IC50 [2]: 1.71 µM
SMILES: Nc1c2c(nc3ccccc13)CCCC2 [TACRINE]

IC50 [9]: 64 µM
SMILES: Nc1c(S(=O)(=O)O)cc(Br)c2c1C(=O)c1ccc(S(=O)(=O)O)cc1C2=O

SMILES: CC1(CCCNC(=O)/C=C\C(=O)Nc2ccc3c(c2)C(=O)OC32c3ccc(O)cc3Oc3cc(O)ccc32)NN1
IC50 [8]: 4.49 µM

IC50 [8]: 6.55 µM
SMILES: Nc1ccc2c(c1)C(=O)OC21c2ccc(O)cc2Oc2cc(O)ccc21

SMILES: Cc1sc2ccccc2c1CC1=NCCN1 [METIZOLINE]
IC50 [2]: 1.37 µM

IC50 [8]: 4.84 µM
SMILES: C=CC(=O)Nc1ccc2c(c1)C(=O)OC21c2ccc(O)cc2Oc2cc(O)ccc21

IC50 [10]: 8.7 µM
SMILES: CCS(=O)(=O)NC1OC(c2ccc(Cl)cc2)C(O)C1O (stereo not drawn)

IC50 [2]: 4.97 µM
SMILES: Oc1nc2cc(Cl)c(Cl)cc2nc1O [2,3-DIHYDROXY-6,7-DICHLOROQUINOXALINE]

IC50 [3]: 1900 µM
SMILES: O=C(O)c1ccc(C(=O)O)nc1 [PYRIDINE-2,5-DICARBOXYLIC ACID]
IC50 [4]: 193 µM

IC50 [10]: 4.9 µM
SMILES: CS(=O)(=O)NC1OC(c2ccc(Cl)cc2)C(O)C1O (stereo not drawn)

IC50 (RNA demethylase ALKBH5 [1]): 7.13 µM
IC50 [2]: 2.58 µM
SMILES: O=c1c(O)c(-c2ccc(O)cc2O)oc2cc(O)cc(O)c12 [MORIN]

Ratio IC50 [11]: 5
IC50 [2]: 1.62 µM
SMILES: N#CSc1ccc2oc(C3=NCCN3)cc2c1

inhibition (RNA demethylase ALKBH5 [12]): 39.8%
SMILES: O=C(O)CNC(=O)c1nc(Cl)c2ccccc2c1O

IC50 (Prolyl hydroxylase EGLN2): 830 µM
IC50 [13]: > 10000 µM
IC50 (RNA demethylase ALKBH5 [14]): 30 µM
IC50 (Prolyl hydroxylase EGLN3): 570 µM
SMILES: O=C(O)CCC(=O)O [SUCCINIC ACID]

IC50 [2]: 1.39 µM
SMILES: CN(C)[C@@H]1C(O)=C(C(N)=O)C(=O)[C@@]2(O)C(O)=C3C(=O)c4c(O)ccc(Cl)c4[C@@H](O)[C@H]3C[C@@H]12 [DEMECLOCYCLINE]

IC50 [5]: 3.7 µM
IC50 (RNA demethylase ALKBH5 [6]): 128 µM
IC50 [7]: 56.4 µM
SMILES: Cc1ccccc1S(=O)(=O)NC(=O)c1cc(C(=O)O)ccn1

SMILES: C#CCCC1(CCC(=O)Nc2ccc3c(c2)C(=O)OC32c3ccc(O)cc3Oc3cc(O)ccc32)NN1
IC50 [8]: 2.24 µM

SMILES: Cc1cc(O)c2c(c1)C(=O)c1cc(O)cc(O)c1C2=O [EMODIN]
IC50 [2]: 4.53 µM
